Data as given in patent US12391687B2, “Five-and-six-membered heterocyclic compound and use thereof as protein receptor kinase inhibitor” (SHANGHAI ENNOVABIO PHARMACEUTICALS CO., LTD., priority 2018, dated 2025).

What was measured:
Recombinant human TRKA = Recombinant human TRKA (Homo sapiens (Human), UniProt P04629); test: In vitro activity test on TRKA kinase (HTRF kinEASE TK); format: biochemical; conditions: 14.68 μM ATP, 40 min, room temperature
Description: (§1) Recombinant human TRKA, TRKB, TRKC proteins were purchased from Carna Biosciences. HTRF kinEASE TK kit was purchased from Cisbio Bioassays. Synergy Neo 2 of Biotek was used to read the plate.
(§2) The tested compounds were subjected to 3-fold serial dilution to reach a final concentration of 1 μM to 0.05 nM (10 concentrations), duplicates for each concentration; and the DMSO concentration in the detection reaction was 1%.
0.2 ng/μL TRKA protein kinase, 1 μM TK Substrate-biotin polypeptide substrate, 14.68 μM ATP, 1×enzymatic buffer, 5 mM MgCl2, and 1 mM DTT. The assay plate was White Proxiplate384-Plus plate (PerkinElmer), and the reaction was incubated at room temperature for 40 min, and the assay volume was 10 μL.
(§3) 10 μL of detection reagent (containing 0.125 μM SA-XL665 and 5 μL 1×TK-Antibody) was added to the plate and incubated overnight at room temperature. Synergy Neo 2 was used to read the plate.
(§4) The 665/620 Ratio was converted according to the following formula into inhibition rate (%)=(1−Ratiotest/Ratiomax)×100%. Ratiomax was the value of positive controls without tested compound, and Ratiotest was the value of each concentration of different compounds. IC50 (nM) data was obtained by 4 parameter curve fitting (see Table 1).

Recombinant human TRKB = Recombinant human TRKB (Homo sapiens (Human), UniProt Q16620); test: In vitro activity test on TRKB kinase (HTRF kinEASE TK); format: biochemical; conditions: 4.77 μM ATP, 50 min, room temperature
Description: as §1, §2
(§5) 0.037 ng/μL TRKB protein kinase, 1 μM TK Substrate-biotin polypeptide substrate, 4.77 μM ATP, 1× enzymatic buffer, 5 mM MgCl2, 1 mM MnCl2 and 1 mM DTT. The assay plate was White Proxiplate 384-Plus plate (PerkinElmer), the reaction was incubated at room temperature for 50 min, and the assay volume was 10 μL.
as §3, §4

Recombinant human TRKC = Recombinant human TRKC (Homo sapiens (Human), UniProt Q16288); test: In vitro activity test on TRKC kinase (HTRF kinEASE TK); format: biochemical; conditions: 25.64 μM ATP, 40 min, room temperature
Description: as §1, §2
as §5, with “ng/μL TRKC” for “ng/μL TRKB”, “substrate, 25.64” for “substrate, 4.77”, “MgCl2,” for “MgCl2, 1 mM MnCl2”, “The detection” for “The assay”, “for 40” for “for 50”
as §3, §4

KM12-LUC cells = test: KM12-LUC cell proliferation experiment (CellTiter-Glo); format: cell-based; conditions: human colon cancer cell line with TPM3-NTRK1 fusion, 72 hours
Description: Human colon cancer cell line KM12-LUC (LUC, stably expressing Luciferase) expressing TPM3-NTRK1 fusion gene was used to evaluate cellular activity of the compounds. The TRK fusion gene in KM12-LUC cells makes the sustained activation of TRK and the downstream signaling pathways associated with cell proliferation such as MAPK-ERK, PI3K-AKT, etc independent of the stimulation of extracellular growth factor. […] The method was as follows: On the first day, the cells were seeded into 384-well plates at 2000 cells/well; on the second day, different concentrations of test compounds were added; and on the 5th day, CellTiter-Glo (Promega) was added to detect cell viability, and the cell proliferation inhibition rate at 72 hours was calculated. Statistical analysis was carried out by PRISM5 and the IC50 of the test compounds was calculated.

[1] = target: recombinant human TRKA (G595R) (Homo sapiens (Human), UniProt P04629, G595R); test: In vitro activity test on mutant TRKA (G595R) (HTRF kinEASE TK); format: biochemical; conditions: 4.5 μM ATP, 30 min, room temperature; read-out: TRKA (G595R) IC 50
Description: The recombinant human TRKA (G595R), TRKA (G667C) and TRKC (G623R) proteins were purchased from SignalChem. HTRF kinEASE TK kit was purchased from Cisbio Bioassays. Synergy Neo 2 of Biotek was used to read the plate.
The tested compounds were subjected to 4-fold serial dilution to reach a final concentration of 1 μM to 0.004 nM (10 concentrates), duplicates for each concentration; and the final concentration of DMSO in the reaction was 1%.
0.12 ng/μL TRKA (G595R) kinase, 1 μM TK Substrate-biotin polypeptide substrate, 4.5 μM ATP, 1× enzymatic buffer, 5 mM MgCl2, and 1 mM DTT. The assay plate was White Proxiplate384-Plus plate (PerkinElmer), and the reaction was incubated at room temperature for 30 min, and the assay volume was 10 μL.
10 μL of detection reagent (containing 0.125 μM SA-XL665 and 5 μL 1×TK-Antibody) was added to the plate and incubated overnight at room temperature, and Synergy Neo 2 was used to read the plate.
The value of 665/620 Ratio minus the value of negative control wells without enzyme, then the obtained value was converted according to the following formula into inhibition rate (%)=(1−Ratiotest/Ratiomax)×100%. Ratiomax was the value of positive controls without tested compound, and Ratiotest was the value of each concentration of different compounds. IC50 (nM) data was obtained by 4 parameter curve fitting (see Table 3).

Chain of Recombinant human TRKB (Q16620 32-822): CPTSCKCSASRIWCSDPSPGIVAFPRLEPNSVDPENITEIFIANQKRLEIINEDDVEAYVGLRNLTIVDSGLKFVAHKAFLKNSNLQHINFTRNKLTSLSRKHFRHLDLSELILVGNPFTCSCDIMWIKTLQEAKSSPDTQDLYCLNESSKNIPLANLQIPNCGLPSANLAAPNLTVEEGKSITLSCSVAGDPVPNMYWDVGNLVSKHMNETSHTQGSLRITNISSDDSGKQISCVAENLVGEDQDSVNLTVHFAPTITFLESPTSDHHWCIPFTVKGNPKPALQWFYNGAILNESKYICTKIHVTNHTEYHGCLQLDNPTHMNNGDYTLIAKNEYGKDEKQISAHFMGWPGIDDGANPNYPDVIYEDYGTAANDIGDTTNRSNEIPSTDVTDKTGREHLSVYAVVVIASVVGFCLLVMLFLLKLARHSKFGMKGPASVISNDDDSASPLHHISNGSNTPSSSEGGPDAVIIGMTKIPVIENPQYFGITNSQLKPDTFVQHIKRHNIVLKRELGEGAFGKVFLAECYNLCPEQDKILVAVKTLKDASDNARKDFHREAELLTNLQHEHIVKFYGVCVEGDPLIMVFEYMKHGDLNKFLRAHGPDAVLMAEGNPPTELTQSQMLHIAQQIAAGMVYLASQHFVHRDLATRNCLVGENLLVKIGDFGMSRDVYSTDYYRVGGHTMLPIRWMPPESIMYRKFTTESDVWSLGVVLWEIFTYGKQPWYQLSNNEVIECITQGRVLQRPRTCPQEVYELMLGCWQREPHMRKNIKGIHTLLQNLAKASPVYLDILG
Chain of Recombinant human TRKC (Q16288 32-839): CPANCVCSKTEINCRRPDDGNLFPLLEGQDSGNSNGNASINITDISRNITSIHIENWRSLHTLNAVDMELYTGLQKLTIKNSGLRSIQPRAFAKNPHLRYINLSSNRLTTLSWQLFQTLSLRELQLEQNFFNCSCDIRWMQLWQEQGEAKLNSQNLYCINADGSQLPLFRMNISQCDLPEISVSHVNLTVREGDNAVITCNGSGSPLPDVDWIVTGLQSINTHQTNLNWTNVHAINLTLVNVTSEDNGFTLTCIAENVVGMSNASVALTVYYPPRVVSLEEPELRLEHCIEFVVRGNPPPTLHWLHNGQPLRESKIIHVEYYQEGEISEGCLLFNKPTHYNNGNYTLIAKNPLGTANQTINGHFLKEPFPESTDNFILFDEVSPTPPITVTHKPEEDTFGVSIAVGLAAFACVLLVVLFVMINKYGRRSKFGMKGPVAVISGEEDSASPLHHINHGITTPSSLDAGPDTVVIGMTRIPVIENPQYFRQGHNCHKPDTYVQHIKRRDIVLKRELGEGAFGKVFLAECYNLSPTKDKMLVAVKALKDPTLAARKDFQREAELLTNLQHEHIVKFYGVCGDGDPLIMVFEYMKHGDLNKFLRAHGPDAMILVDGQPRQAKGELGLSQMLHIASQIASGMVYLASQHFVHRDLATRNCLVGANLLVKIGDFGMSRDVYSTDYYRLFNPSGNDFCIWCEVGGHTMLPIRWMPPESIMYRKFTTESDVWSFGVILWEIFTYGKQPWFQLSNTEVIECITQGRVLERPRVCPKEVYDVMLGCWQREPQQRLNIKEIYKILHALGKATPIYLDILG
Chain of Recombinant human TRKA (P04629 33-796): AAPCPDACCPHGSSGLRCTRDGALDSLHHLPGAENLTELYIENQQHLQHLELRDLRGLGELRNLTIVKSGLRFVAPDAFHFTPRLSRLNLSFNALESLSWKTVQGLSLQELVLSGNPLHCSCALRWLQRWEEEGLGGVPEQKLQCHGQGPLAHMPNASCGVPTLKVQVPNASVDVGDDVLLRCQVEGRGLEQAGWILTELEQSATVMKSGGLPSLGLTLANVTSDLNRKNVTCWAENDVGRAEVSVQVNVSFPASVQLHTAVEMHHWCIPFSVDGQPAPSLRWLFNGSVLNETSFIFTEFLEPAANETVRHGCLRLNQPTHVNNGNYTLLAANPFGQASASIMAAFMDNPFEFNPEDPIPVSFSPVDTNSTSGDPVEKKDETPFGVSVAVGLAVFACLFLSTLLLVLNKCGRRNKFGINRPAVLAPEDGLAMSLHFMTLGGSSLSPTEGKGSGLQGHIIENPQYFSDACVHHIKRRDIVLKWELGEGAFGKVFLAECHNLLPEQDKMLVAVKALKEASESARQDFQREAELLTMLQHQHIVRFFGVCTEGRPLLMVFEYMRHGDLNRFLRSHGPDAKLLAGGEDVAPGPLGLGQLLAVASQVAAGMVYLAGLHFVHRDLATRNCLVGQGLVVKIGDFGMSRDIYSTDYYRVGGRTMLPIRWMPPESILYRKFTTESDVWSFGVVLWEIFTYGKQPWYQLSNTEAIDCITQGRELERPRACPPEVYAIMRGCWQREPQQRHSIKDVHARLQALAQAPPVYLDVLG
Chain of recombinant human TRKA (G595R) (P04629 33-796 G595R): as the sequence (P04629 33-796) above, with G563R counted along it

IC50 (Recombinant human TRKA) [nM]	IC50 (Recombinant human TRKB) [nM]	IC50 (Recombinant human TRKC) [nM]	IC50 [1] [nM]	SMILES	IC50 (KM12-LUC cells) [nM]
< 1	< 1	< 1	< 1	Fc1ccc(F)c([C@H]2C[C@H](F)CN2c2n[nH]c3ncc(-c4ccn(CC(F)F)n4)cc23)c1 [Example 36, 5-(1-(2,2-difluoroethyl)-1H-pyrazol-3-yl)-3-((2R,4S)-2-(2,5-difluorophenyl)-4-fluoropyrrolidin-1-yl)-1H-pyrazolo[3,4-b]pyridine]	< 10
< 10	< 10	< 10	< 10	NC(=O)c1cnc2[nH]nc(N3C[C@@H](F)C[C@@H]3c3cc(F)ccc3F)c2c1 [Example 5, 3-((2R,4S)-2-(2,5-difluorophenyl)-4-fluoropyrrolidin-1-yl)-1H-pyrazolo[3,4-b]pyridine-5-carboxamide]	< 10
< 1	< 1	< 1	< 1	CC(C)(O)Cn1cc(-c2cnc3[nH]nc(N4C[C@@H](F)C[C@@H]4c4cc(F)ccc4F)c3c2)cn1 [Example 32, 1-(4-(3-((2R,4S)-2-(2,5-difluorophenyl)-4-fluoropyrrolidin-1-yl)-1H-pyrazolo[3,4-b]pyridin-5-yl)-1H-pyrazol-1-yl)-2-methylpropan-2-ol]	< 1
< 1	< 1	< 1	< 1	Fc1ccc(F)c([C@H]2C[C@H](F)CN2c2n[nH]c3ncc(-c4cnn([C@H]5CCNC5)c4)cc23)c1 [Example 25, 3-((2R,4S)-2-(2,5-difluorophenyl)-4-fluoropyrrolidin-1-yl)-5-(1-((S)-pyrrolidin-3-yl)-1H-pyrazol-4-yl)-1H-pyrazolo[3,4-b]pyridine]	< 10
< 1	< 1	< 1	< 1	Fc1ccc(F)c([C@H]2C[C@H](F)CN2c2n[nH]c3ncc(-c4cn[nH]c4)cc23)c1 [Example 20, 3-((2R,4S)-2-(2,5-difluorophenyl)-4-fluoropyrrolidin-1-yl)-5-(1H-pyrazol-4-yl)-1H-pyrazolo[3,4-b]pyridine]	< 10
< 1	< 1	< 1	< 1	Fc1ccc(F)c([C@H]2C[C@H](F)CN2c2n[nH]c3ncc(-c4cnn(C5CCNCC5)c4)cc23)c1 [Example 22, 3-((2R,4S)-2-(2,5-difluorophenyl)-4-fluoropyrrolidin-1-yl)-5-(1-(piperidin-4-yl)-1H-pyrazol-4-yl)-1H-pyrazolo[3,4-b]pyridine]	< 10
< 1	< 1	< 1	< 1	Fc1ccc(F)c([C@H]2C[C@H](F)CN2c2n[nH]c3ncc(-c4cnn(CC(F)(F)F)c4)cc23)c1 [Example 35, 3-((2R,4S)-2-(2,5-difluorophenyl)-4-fluoropyrrolidin-1-yl)-5-(1-(2,2,2-trifluoroethyl)-1H-pyrazol-4-yl)-1H-pyrazolo[3,4-b]pyridine]	< 10
< 1	< 1	< 1	< 10	CN1CC(n2cc(-c3cnc4[nH]nc(N5C[C@@H](F)C[C@@H]5c5cc(F)ccc5F)c4c3)cn2)C1 [Example 29, 3-((2R,4S)-2-(2,5-difluorophenyl)-4-fluoropyrrolidin-1-yl)-5-(1-(1-methylazetidin-3-yl)-1H-pyrazol-4-yl)-1H-pyrazolo[3,4-b]pyridine]	< 10
< 10	< 500	< 100	< 1	Fc1ccc(F)c([C@H]2C[C@H](F)CN2c2n[nH]c3ncc(-c4cnn([C@@H]5CCNC5)c4)cc23)c1 [Example 24, 3-((2R,4S)-2-(2,5-difluorophenyl)-4-fluoropyrrolidin-1-yl)-5-(1-((R)-pyrrolidin-3-yl)-1H-pyrazol-4-yl)-1H-pyrazolo[3,4-b]pyridine]	< 10
< 1	< 1	< 1	< 1	Fc1ccc(F)c([C@H]2C[C@H](F)CN2c2n[nH]c3ncc(-c4cnn(CC(F)F)c4)cc23)c1 [Example 30, 5-(1-(2,2-difluoroethyl)-1H-pyrazol-4-yl)-3-((2R,4S)-2-(2,5-difluorophenyl)-4-fluoropyrrolidin-1-yl)-1H-pyrazolo[3,4-b]pyridine]	< 10
